# Data from ChEMBL document CHEMBL1158997, “New Stemodane Diterpenes from Stemodia maritima” (1992).
# Test system: Human alphaherpesvirus 1
# Assay: Antiviral activity against HSV1 assessed as plaque reduction at 30 to 200 […]
# Type: functional
# Design: scale not given: the % may be the effect or the level left
structure (smiles),measurement,value
CC1(C)C[C@H](O)C[C@@]2(C)[C@H]1CC[C@H]1C[C@H]3C[C@]12CC[C@]3(C)O[C@@H]1O[C@H](CO)[C@@H](O)[C@H](O)[C@H]1O [STEMODINOSIDE B],Activity,77%
